In brackets after ≈: the same amount, converted by molar mass.
Tested on: not listed separately
Assay: in vivo
Settings: mouse, iv

Row | SMILES | MTD
1 | CCOc1cccc(C2(C(=O)NC3C(=O)N4C3SC(C)(C)C4C(=O)O)CCCC2)c1 (stereo not shown) [Compound VIII (Table 1)] | 1500 mg/kg
2 | CC(C)Oc1cccc(C2(C(=O)NC3C(=O)N4C3SC(C)(C)C4C(=O)O)CCCC2)c1 (stereo not shown) [Compound X (Table 1)] | 1500 mg/kg

Target: T1, staphylococc penicillinase (Staphylococcus aureus, UniProt P00807)
Assay: not given
Settings: cited from earlier work

T1 sequence (P00807 25-281): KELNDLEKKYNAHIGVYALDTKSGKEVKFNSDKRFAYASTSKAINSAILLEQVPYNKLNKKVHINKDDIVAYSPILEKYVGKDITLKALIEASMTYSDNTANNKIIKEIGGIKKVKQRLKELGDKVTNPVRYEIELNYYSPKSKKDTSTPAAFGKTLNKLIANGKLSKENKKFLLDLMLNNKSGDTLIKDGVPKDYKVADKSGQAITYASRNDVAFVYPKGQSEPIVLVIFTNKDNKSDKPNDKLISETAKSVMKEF

Row | SMILES | penicillinase resistance (background statement)
3 | COc1cccc(OC)c1C(=O)N[C@@H]1C(=O)N2[C@@H]1SC(C)(C)[C@@H]2C(=O)O [methycillin] | penicillinase resistant

Target: T1, staphylococc penicillinase
Assay: Hydrolysis/inactivation by staphylococc penicillinase
Format: biochemical
Settings: Table 5
Protocol: (§1) All compounds of this group were prepared in the form of sodium salts. Bactericidal activity, degree of hydrolysis with staphylococc penicillinase and acid resistance of the penicillins were determined.
The substitution of propoxy radical for iso-radical in this position is not accompanied by areduction of penicillin stability against penicillinase which is not observed in the orto- and para-positions. During the subsequent hours of inactivation the rate of hydrolysis of penicillins slightly increases. However, even when observed in dynamics, their stability against penicillianase still persists during 4-hour-inactivation.

Row | SMILES | Quantity of inactivated units of compounds under the action of 1 unit of staphylococc penicillinase
4 | CCOc1cccc(C2(C(=O)NC3C(=O)N4C3SC(C)(C)C4C(=O)O)CCCC2)c1 (stereo not shown) [Compound VIII (Table 1)] | 10.0 units
5 | CC(C)Oc1cccc(C2(C(=O)NC3C(=O)N4C3SC(C)(C)C4C(=O)O)CCCC2)c1 (stereo not shown) [Compound X (Table 1)] | 27.5 units

Tested on: Staph. aureus 209p (adapted to benzylpenicillin)
Assay: Minimal bacteriostatic concentration
Format: cell-based
Settings: Staphylococcus aureus, read-out: Minimal Bacteriostatic Concentration
Protocol: as §1

Row | SMILES | MIC
6 | CCOc1cccc(C2(C(=O)NC3C(=O)N4C3SC(C)(C)C4C(=O)O)CCCC2)c1 (stereo not shown) [Compound VIII (Table 1)] | > 500 µg/mL
7 | CC(C)Oc1cccc(C2(C(=O)NC3C(=O)N4C3SC(C)(C)C4C(=O)O)CCCC2)c1 (stereo not shown) [Compound X (Table 1)] | > 500 µg/mL

Tested on: Prot.vulgaris
Assay: Minimal bacteriostatic concentration
Format: cell-based
Settings: Proteus vulgaris, sodium salts
Protocol: as §1

Row | SMILES | MIC
8 | CCOc1cccc(C2(C(=O)NC3C(=O)N4C3SC(C)(C)C4C(=O)O)CCCC2)c1 (stereo not shown) [Compound VIII (Table 1)] | 250 µg/mL
9 | CC(C)Oc1cccc(C2(C(=O)NC3C(=O)N4C3SC(C)(C)C4C(=O)O)CCCC2)c1 (stereo not shown) [Compound X (Table 1)] | 250 µg/mL

Tested on: Staph. aureus 209p
Assay: Minimal bacteriostatic concentration
Format: cell-based
Settings: Staphylococcus aureus, sodium salts
Protocol: as §1

Row | SMILES | MIC
10 | CCOc1cccc(C2(C(=O)NC3C(=O)N4C3SC(C)(C)C4C(=O)O)CCCC2)c1 (stereo not shown) [Compound VIII (Table 1)] | 0.39 µg/mL
11 | CC(C)Oc1cccc(C2(C(=O)NC3C(=O)N4C3SC(C)(C)C4C(=O)O)CCCC2)c1 (stereo not shown) [Compound X (Table 1)] | 0.39 µg/mL

Tested on: E.typhi
Assay: Minimal bacteriostatic concentration
Format: cell-based
Settings: read-out: Minimal Bacteriostatic Concentration
Protocol: as §1

Row | SMILES | MIC
12 | CCOc1cccc(C2(C(=O)NC3C(=O)N4C3SC(C)(C)C4C(=O)O)CCCC2)c1 (stereo not shown) [Compound VIII (Table 1)] | 31.2 µg/mL (≈ 72.1 µM)
13 | CC(C)Oc1cccc(C2(C(=O)NC3C(=O)N4C3SC(C)(C)C4C(=O)O)CCCC2)c1 (stereo not shown) [Compound X (Table 1)] | 15.6 µg/mL (≈ 34.9 µM)

Tested on: Sh.dysenteriae Flexneri
Assay: Minimal bacteriostatic concentration
Format: cell-based
Settings: Shigella dysenteriae, read-out: Minimal Bacteriostatic Concentration
Protocol: as §1

Row | SMILES | MIC
14 | CCOc1cccc(C2(C(=O)NC3C(=O)N4C3SC(C)(C)C4C(=O)O)CCCC2)c1 (stereo not shown) [Compound VIII (Table 1)] | 125 µg/mL (≈ 289 µM)
15 | CC(C)Oc1cccc(C2(C(=O)NC3C(=O)N4C3SC(C)(C)C4C(=O)O)CCCC2)c1 (stereo not shown) [Compound X (Table 1)] | 62.5 µg/mL (≈ 140 µM)

Tested on: Ps.aeruginosa
Assay: Minimal bacteriostatic concentration
Format: cell-based
Settings: Pseudomonas aeruginosa, sodium salts
Protocol: as §1

Row | SMILES | MIC
16 | CCOc1cccc(C2(C(=O)NC3C(=O)N4C3SC(C)(C)C4C(=O)O)CCCC2)c1 (stereo not shown) [Compound VIII (Table 1)] | > 500 µg/mL
17 | CC(C)Oc1cccc(C2(C(=O)NC3C(=O)N4C3SC(C)(C)C4C(=O)O)CCCC2)c1 (stereo not shown) [Compound X (Table 1)] | > 500 µg/mL

Tested on: B.Subtitis ATCC6633
Assay: Minimal bacteriostatic concentration
Format: cell-based
Settings: sodium salts
Protocol: as §1

Row | SMILES | MIC
18 | CCOc1cccc(C2(C(=O)NC3C(=O)N4C3SC(C)(C)C4C(=O)O)CCCC2)c1 (stereo not shown) [Compound VIII (Table 1)] | 0.9 µg/mL
19 | CC(C)Oc1cccc(C2(C(=O)NC3C(=O)N4C3SC(C)(C)C4C(=O)O)CCCC2)c1 (stereo not shown) [Compound X (Table 1)] | 7.8 µg/mL

Tested on: Staph. albus
Assay: Minimal bacteriostatic concentration
Format: cell-based
Settings: sodium salts
Protocol: as §1

Row | SMILES | MIC
20 | CCOc1cccc(C2(C(=O)NC3C(=O)N4C3SC(C)(C)C4C(=O)O)CCCC2)c1 (stereo not shown) [Compound VIII (Table 1)] | 0.19 µg/mL
21 | CC(C)Oc1cccc(C2(C(=O)NC3C(=O)N4C3SC(C)(C)C4C(=O)O)CCCC2)c1 (stereo not shown) [Compound X (Table 1)] | 0.19 µg/mL

Tested on: E.coli O-55
Assay: Minimal bacteriostatic concentration
Format: cell-based
Settings: Escherichia coli, O55, read-out: Minimal Bacteriostatic Concentration
Protocol: as §1

Row | SMILES | MIC
22 | CCOc1cccc(C2(C(=O)NC3C(=O)N4C3SC(C)(C)C4C(=O)O)CCCC2)c1 (stereo not shown) [Compound VIII (Table 1)] | 250 µg/mL (≈ 578 µM)
23 | CC(C)Oc1cccc(C2(C(=O)NC3C(=O)N4C3SC(C)(C)C4C(=O)O)CCCC2)c1 (stereo not shown) [Compound X (Table 1)] | 250 µg/mL (≈ 560 µM)

Tested on: Strept. pyrogenes
Assay: Minimal bacteriostatic concentration
Format: cell-based
Settings: sodium salts
Protocol: as §1

Row | SMILES | MIC
24 | CCOc1cccc(C2(C(=O)NC3C(=O)N4C3SC(C)(C)C4C(=O)O)CCCC2)c1 (stereo not shown) [Compound VIII (Table 1)] | 0.39 µg/mL
25 | CC(C)Oc1cccc(C2(C(=O)NC3C(=O)N4C3SC(C)(C)C4C(=O)O)CCCC2)c1 (stereo not shown) [Compound X (Table 1)] | 0.19 µg/mL

Tested on: Vibrion Metschnicoff
Assay: Minimal bacteriostatic concentration
Format: cell-based
Settings: Vibrion Metschnicoff; sodium salts; read-out: Minimal Bacteriostatic Concentration
Protocol: as §1

Row | SMILES | MIC
26 | CCOc1cccc(C2(C(=O)NC3C(=O)N4C3SC(C)(C)C4C(=O)O)CCCC2)c1 (stereo not shown) [Compound VIII (Table 1)] | 3.9 µg/mL
27 | CC(C)Oc1cccc(C2(C(=O)NC3C(=O)N4C3SC(C)(C)C4C(=O)O)CCCC2)c1 (stereo not shown) [Compound X (Table 1)] | 3.9 µg/mL

Tested on: Myco smegmatis
Assay: Minimal bacteriostatic concentration
Format: cell-based
Settings: sodium salts
Protocol: as §1

Row | SMILES | MIC
28 | CCOc1cccc(C2(C(=O)NC3C(=O)N4C3SC(C)(C)C4C(=O)O)CCCC2)c1 (stereo not shown) [Compound VIII (Table 1)] | > 500 µg/mL
29 | CC(C)Oc1cccc(C2(C(=O)NC3C(=O)N4C3SC(C)(C)C4C(=O)O)CCCC2)c1 (stereo not shown) [Compound X (Table 1)] | > 500 µg/mL

Tested on: not listed separately
Assay: Acid resistance (half-life period)
Format: physicochemical
Settings: acid ph 1.3; Temperature 37° C, pH 1.3; Table 1, cyclopentyl series; read-out: τ1/2 half-life period (acid resistance)
Protocol: as §1

Row | SMILES | half-life
30 | CCOc1cccc(C2(C(=O)NC3C(=O)N4C3SC(C)(C)C4C(=O)O)CCCC2)c1 (stereo not shown) [Compound VIII (Table 1)] | 189 min
31 | CC(C)Oc1cccc(C2(C(=O)NC3C(=O)N4C3SC(C)(C)C4C(=O)O)CCCC2)c1 (stereo not shown) [Compound X (Table 1)] | 25.9 min

From patent publication US4130559A, “Method for the preparation of 6-aminopenicillinic acid derivatives” (priority 1977, dated 1978)
